In patent publication US20260224536A1, “ARYL HETEROCYCLIC KV1.3 INHIBITOR, PREPARATION METHOD THEREFOR, AND USE THEREOF” (SHANGHAI SHENSHI WISE TECHNOLOGY CO., LTD., priority 2022, published 2026) one finds IC50 data, which are given here for 31 compounds.

The target in the assay is Kv1.3 potassium channel (Homo sapiens, UniProt P22001). The assay can be described thus: Whole-cell patch-clamp assay for inhibitory activity against Kv1.3 (peak current). The class given is cell-based. The note with it: HEK293 cells stably expressing Kv1.3, patch-clamp. From the text: The voltage stimulation protocol for recording whole-cell Kv1.X potassium currents via patch-clamp was as follows. After formation of a whole-cell seal, the cell membrane voltage was clamped at −80 mV, and then stepped to +40 mV for 500 ms. […] The test data were acquired by EPC-10 amplifier (HEKA) and stored in the PatchMaster (HEKA) software. Recording electrodes were drawn from capillary glass tubes using a microelectrode puller. Under an inverted microscope, the recording electrode was brought into contact with the cell surface by manipulating a microelectrode manipulator. Negative-pressure suction was applied to form a GΩ seal. After formation of the […], a rapid capacitance compensation was given. The application of negative pressure was continued to rupture the cell membrane, forming a whole-cell recording mode. Then, a slow capacitance compensation was given, and the membrane capacitance and series resistance were recorded. No current leakage compensation was provided. Once the whole-cell recorded Kv1.X current stabilized, drug administration was started. Each drug concentration was allowed to act for 5 min (or until the current reached a steady state) before the next concentration was tested. Multiple concentrations were tested for each test compound. The cover glass plated with the cells was placed in a recording bath of the inverted microscope. The test compound and the compound-free extracellular fluid were allowed to sequentially flow through the recording bath from low concentrations to high concentrations using a gravity perfusion method, thus acting on the cells, and liquid exchange was performed using a vacuum pump during recording. For each cell, the current detected in the compound-free extracellular liquid was used as its own control group. The test was independently repeated three times using at least three cells per concentration. All electrophysiological experiments were performed at room temperature. […] First, the peak current after the action of each drug concentration and the peak current of the blank control were standardized and then the inhibition rate corresponding to each drug concentration was calculated Subsequently, the mean, standard deviation (SD), and standard error (SE) were calculated for the inhibition rate corresponding to each concentration. Using the above equation, the IC50 value for each compound was calculated, and the dose-dependent effect was subjected to non-linear fitting, where IC50 is the half maximal inhibitory concentration. The IC50 calculation and the curve fitting were performed using the GraphPad Prism software.
Sequence of Kv1.3 potassium channel (P22001 whole entry): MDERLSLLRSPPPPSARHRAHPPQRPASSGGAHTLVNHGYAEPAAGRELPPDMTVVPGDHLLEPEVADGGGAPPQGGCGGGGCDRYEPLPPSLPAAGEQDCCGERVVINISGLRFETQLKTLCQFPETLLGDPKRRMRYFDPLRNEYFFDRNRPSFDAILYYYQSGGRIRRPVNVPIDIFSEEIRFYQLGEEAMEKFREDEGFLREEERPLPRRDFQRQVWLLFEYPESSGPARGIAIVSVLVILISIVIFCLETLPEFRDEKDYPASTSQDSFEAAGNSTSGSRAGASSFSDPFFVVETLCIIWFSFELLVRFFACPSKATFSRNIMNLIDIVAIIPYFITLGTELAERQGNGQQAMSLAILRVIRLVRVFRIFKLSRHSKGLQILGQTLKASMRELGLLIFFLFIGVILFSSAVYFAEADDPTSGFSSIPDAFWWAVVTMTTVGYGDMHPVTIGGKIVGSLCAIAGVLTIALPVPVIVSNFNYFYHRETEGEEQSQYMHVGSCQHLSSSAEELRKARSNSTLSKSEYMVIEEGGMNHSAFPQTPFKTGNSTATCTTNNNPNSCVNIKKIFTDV
For orientation: The patch-clamp technique gives a direct electrical read-out from membranes.

Structures are written as SMILES.

Consider `CC(C)(C)n1cc(-c2cnc3n2CC(c2c(O)ccc(Cl)c2Cl)C3)cn1` (stereo not shown) [Example 98, 2-(3-(1-(tert-Butyl)-1H-pyrazol-4-yl)-6,7-dihydro-5H-pyrrolo[1,2-a]imidazol-6-yl)-3,4-dichlorophenol], for which the IC50 (in general, the concentration that gives 50% inhibition) turned out to be 25.5 nM.

Consider `Oc1ccc(Cl)c(Cl)c1[C@@H]1Cc2nnc([C@H]3C[C@H]4CC[C@@H]3O4)n2C1` [Example 60, 2-((S)-3-((1S,2R,4R)-7-Oxabicyclo[2.2.1]heptan-2-yl)-6,7-dihydro-5H-pyrrolo[2,1-c][1,2,4]triazol-6-yl)-3,4-dichlorophenol], for which 27.6 nM corresponded to half-maximal inhibition (IC50).

As for `CC(C)N1CCN(c2cnc3n2CC(c2c(O)ccc(Cl)c2Cl)C3)CC1` (stereo not shown) [Example 100, 3,4-Dichloro-2-(3-(4-isopropylpiperazin-1-yl)-6,7-dihydro-5H-pyrrolo[1,2-a]imidazol-6-yl)phenol], half-maximal inhibition (IC50) was put at 9.89 nM.

With `Oc1ccc(Cl)c(Cl)c1[C@@H]1Cc2nnc([C@H]3CCNC3)n2C1` [Example 47, 3,4-Dichloro-2-((S)-3-((S)-pyrrolidin-3-yl)-6,7-dihydro-5H-pyrrolo[2,1-c][1,2,4]triazol-6-yl)phenol], the IC50 was found to be 1.3 nM.

In turn, `Oc1ccc(Cl)c(Cl)c1C1Cc2nnc(CN3CCC(O)C3)n2C1` (stereo not shown) [Example 19, 1-((6-(2,3-Dichloro-6-hydroxyphenyl)-6,7-dihydro-5H-pyrrolo[2,1-c][1,2,4]triazol-3-yl)methyl)pyrrolidin-3-ol] had a half-inhibitory concentration (IC50) of 46.3 nM.

Regarding `COc1ccc(-c2cnc3n2CC(c2c(O)ccc(Cl)c2Cl)C3)cc1` (stereo not shown) [Example 96, 3,4-Dichloro-2-(3-(4-methoxyphenyl)-6,7-dihydro-5H-pyrrolo[1,2-a]imidazol-6-yl)phenol], the half-maximal inhibitory concentration (IC50) is 51.6 nM.

The compound `Nc1cc(-c2nnc3n2C[C@H](c2c(O)ccc(Cl)c2Cl)C3)ccn1` [Example 43, (S)-2-(3-(2-Aminopyridin-4-yl)-6,7-dihydro-5H-pyrrolo[2,1-c][1,2,4]triazol-6-yl)-3,4-dichlorophenol] gave an IC50 of 19.7 nM.

Regarding `CC(C)N1CCC(n2nc3n(c2=O)C[C@@H](c2c(O)ccc(Cl)c2Cl)C3)CC1` [Example 104, (R)-6-(2,3-dichloro-6-hydroxyphenyl)-2-(1-isopropylpiperidin-4-yl)-2,5,6,7-tetrahydro-3H-pyrrolo[2,1-c][1,2,4]triazol-3-one], the half-inhibitory concentration (IC50) is 6.93 nM.

Take `CC(=O)N1CCC(c2nnc3n2C[C@H](c2c(O)ccc(Cl)c2Cl)C3)CC1` [Example 37, (S)-1-(4-(6-(2,3-Dichloro-6-hydroxyphenyl)-6,7-dihydro-5H-pyrrolo[2,1-c][1,2,4]triazol-3-yl)piperidin-1-yl)ethan-1-one]: the IC50 worked out at 12.7 nM.

`Oc1ccc(Cl)c(Cl)c1[C@@H]1Cc2nnc([C@@H]3CCN(C4CCOCC4)C3)n2C1` [Example 83, 3,4-Dichloro-2-((S)-3-((R)-1-(tetrahydro-2H-pyran-4-yl)pyrrolidin-3-yl)-6,7-dihydro-5H-pyrrolo[2,1-c][1,2,4]triazol-6-yl)phenol]: half-maximal inhibition (IC50) required 3.99 nM.

For the compound `Oc1ccc(Cl)c(Cl)c1[C@@H]1Cc2nnc(C3CCN(C4CCCCC4)CC3)n2C1` [Example 78, (S)-3,4-Dichloro-2-(3-(1-cyclohexylpiperidin-4-yl)-6,7-dihydro-5H-pyrrolo[2,1-c][1,2,4]triazol-6-yl)phenol], the half-inhibitory concentration (IC50) was determined as 12.6 nM.

The compound `O=C(c1nnc2n1CC(c1c(O)ccc(Cl)c1Cl)C2)N1CCNCC1` (stereo not shown) [Example 13, (6-(2,3-Dichloro-6-hydroxyphenyl)-6,7-dihydro-5H-pyrrolo[2,1-c][1,2,4]triazol-3-yl)(piperazin-1-yl)methanone] showed a 50% inhibitory concentration (IC50) of 5.09 nM.

Consider `COc1cccc(-c2nnc3n2C[C@H](c2c(O)ccc(Cl)c2Cl)C3)c1` [Example 76, (S)-3,4-Dichloro-2-(3-(3-methoxyphenyl)-6,7-dihydro-5H-pyrrolo[2,1-c][1,2,4]triazol-6-yl)phenol], for which the IC50 was 27.9 nM.

`Oc1ccc(Cl)c(Cl)c1C1Cc2nnc(CN3CCOCC3)n2C1` (stereo not shown) [Example 20, 3,4-Dichloro-2-(3-(morpholinomethyl)-6,7-dihydro-5H-pyrrolo[2,1-c][1,2,4]triazol-6-yl)phenol] displayed a half-maximal inhibitory concentration (IC50) of 35.3 nM.

For the compound `OCCn1cc(-c2nnc3n2C[C@H](c2c(O)ccc(Cl)c2Cl)C3)cn1` [Example 44, (S)-3,4-Dichloro-2-(3-(1-(2-hydroxyethyl)-1H-pyrazol-4-yl)-6,7-dihydro-5H-pyrrolo[2,1-c][1,2,4]triazol-6-yl)phenol], the IC50 is 8.11 nM.

`Oc1ccc(Cl)c(Cl)c1[C@@H]1Cc2nnc([C@@H]3CCCNC3)n2C1` [Example 59, 3,4-dichloro-2-((S)-3-((R)-piperidin-3-yl)-6,7-dihydro-5H-pyrrolo[2,1-c][1,2,4]triazol-6-yl)phenol] had an IC50 of 2.56 nM.

For `O=c1n([C@@H]2CCOC2)nc2n1C[C@H](c1c(O)ccc(Cl)c1Cl)C2` [Example 110, (S)-6-(2,3-dichloro-6-hydroxyphenyl)-2-((R)-tetrahydrofuran-3-yl)-2,5,6,7-tetrahydro-3H-pyrrolo[2,1-c][1,2,4]triazol-3-one], the half-inhibitory concentration (IC50) amounted to 20.1 nM.

In the case of `Oc1ccc(Cl)c(Cl)c1[C@@H]1Cc2nnc(C3CCCC3)n2C1` [Example 67, (S)-3,4-Dichloro-2-(3-cyclopentyl-6,7-dihydro-5H-pyrrolo[2,1-c][1,2,4]triazol-6-yl)phenol], half-maximal inhibition (IC50) required 10.2 nM.

As for `CC1(c2nnc3n2C[C@H](c2c(O)ccc(Cl)c2Cl)C3)CCOC1` (single isomer, unassigned) [Example 64], half-maximal inhibition (IC50) required 42.8 nM.

For the compound `O=c1n(CC(F)F)nc2n1C[C@H](c1c(O)ccc(Cl)c1Cl)C2` [Example 107, (S)-6-(2,3-Dichloro-6-hydroxyphenyl)-2-(2,2-difluoroethyl)-2,5,6,7-tetrahydro-3H-pyrrolo[2,1-c][1,2,4]triazol-3-one], the 50% inhibitory concentration (IC50) stood at 31 nM.

For `Oc1ccc(Cl)c(Cl)c1[C@@H]1Cc2nnc(C3CCOCC3)n2C1` [Example 33, (S)-3,4-Dichloro-2-(3-(tetrahydro-2H-pyran-4-yl)-6,7-dihydro-5H-pyrrolo[2,1-c][1,2,4]triazol-6-yl)phenol], the half-inhibitory concentration (IC50) came to 47.8 nM.

`OCc1nnc2n1C[C@@H](c1c(O)ccc(Cl)c1Cl)C2` [Example 1, (R)-3,4-Dichloro-2-(3-(hydroxymethyl)-6,7-dihydro-5H-pyrrolo[2,1-c][1,2,4]triazol-6-yl)phenol] displayed an IC50 of 94.3 nM.

As to `CCc1nn(C)c2c1C[C@H](c1c(O)ccc(Cl)c1Cl)C2` [Example 115, (S)-3,4-Dichloro-2-(3-ethyl-1-methyl-1,4,5,6-tetrahydrocyclopenta[c]pyrazol-5-yl)phenol], the half-maximal inhibitory concentration (IC50) was found to be 58.8 nM.

`OCCc1nnc2n1C[C@H](c1c(O)ccc(Cl)c1Cl)C2` [Example 32, (S)-3,4-Dichloro-2-(3-(2-hydroxyethyl)-6,7-dihydro-5H-pyrrolo[2,1-c][1,2,4]triazol-6-yl)phenol] showed an IC50 of 13 nM.

In turn, `Cc1cc(-c2nnc3n2C[C@H](c2c(O)ccc(Cl)c2Cl)C3)ccn1` [Example 84, (S)-3,4-Dichloro-2-(3-(2-methylpyridin-4-yl)-6,7-dihydro-5H-pyrrolo[2,1-c][1,2,4]triazol-6-yl)phenol] had a half-inhibitory concentration (IC50) of 8.04 nM.

On to `N#Cc1ccc(-c2nnc3n2CC(c2c(O)ccc(Cl)c2Cl)C3)cc1` (stereo not shown) [Example 6, 4-(6-(2,3-dichloro-6-hydroxyphenyl)-6,7-dihydro-5H-pyrrolo[2,1-c][1,2,4]triazol-3-yl)benzonitrile], for which the half-maximal inhibitory concentration (IC50) amounted to 13.2 nM.

Take `Oc1ccc(Cl)c(Cl)c1C1Cc2nnc(C3CCN(C4CC4)CC3)n2C1` (stereo not shown) [Example 11, 3,4-Dichloro-2-(3-(1-cyclopropylpiperidin-4-yl)-6,7-dihydro-5H-pyrrolo[2,1-c][1,2,4]triazol-6-yl)phenol]: the IC50 worked out at 9.24 nM.

Take `CC(C)N1CCC(c2cnc3n2C[C@@H](c2c(O)ccc(Cl)c2Cl)C3)CC1` [Example 95, (R)-3,4-dichloro-2-(3-(1-isopropylpiperidin-4-yl)-6,7-dihydro-5H-pyrrolo[1,2-a]imidazol-6-yl)phenol]: the IC50 is 6.06 nM.

In turn, `CC(C)N1CCN(C(=O)c2cnc3n2C[C@H](c2c(O)ccc(Cl)c2Cl)C3)CC1` [Example 121, (S)-(6-(2,3-Dichloro-6-hydroxyphenyl)-6,7-dihydro-5H-pyrrolo[1,2-a]imidazol-3-yl)(4-isopropylpiperazin-1-yl)methanone] came in with a half-maximal inhibitory concentration (IC50) of 9.68 nM.

In the case of `CC(C)(C#N)c1nnc2n1CC(c1c(O)ccc(Cl)c1Cl)C2` (stereo not shown) [Example 4, 2-(6-(2,3-Dichloro-6-hydroxyphenyl)-6,7-dihydro-5H-pyrrolo[2,1-c][1,2,4]triazol-3-yl)-2-methylpropanenitrile], the half-maximal inhibitory concentration (IC50) came to 45.2 nM.

As to `COc1cccc(-c2nnc3n2C[C@@H](c2c(O)ccc(Cl)c2Cl)C3)c1` [Example 77, (R)-3,4-dichloro-2-(3-(3-methoxyphenyl)-6,7-dihydro-5H-pyrrolo[2,1-c][1,2,4]triazol-6-yl)phenol], the IC50 was 45.2 nM.
